The results in this text go back to patent US5980935A, “Cationic lipids and methods of use therefor” (priority 1996, dated 1999).

The test system of one data set is C26 cells. The experiment in a line: Delivery of bacterial plasmid into mouse colon carcinoma C26 cells, luciferase expression (Table 3). It is filed as cell-based.
Data set [1] deals with KB31 cells. The experiment in a line: Toxicity of lipids alone or in complex with plasmid for cultured cells, MTT assay. It is filed as cell-based, human. As to conditions: for Toxicity in the studied range of concentrations efficient for gene delivery: cultured human cells, alone or in combination with DNA. As to the method: Lipids alone, or in the complex with pUC-CMVLUC plasmid at the indicated ratio were added to the cell medium at concentrations of 3.2-100 microgram of lipid per 1 ml of growth medium. After 24 hours exposure to the lipids, the lipid-containing media were removed, and the cells were further incubated in fresh growth medium for 65 hours. At the end of incubations, the cell viability was determined by MTT assay as described in T. Mossman 65 J. Immunol.

The test system of another data set is NCI-A549 cells. The experiment in a line: Uptake of fluorescein-labeled 18-mer phosphorothioate oligonucleotide (F-ON), fluorescence microscopy. It is filed as cell-based, human. The note with it: oligonucleotide/lipid weight ratio 1:12, 24 hours, 37° C. As for the experimental part: Human lung adenocarcinoma cells (NCI-A549, American Type Culture Collection) were grown on Permanox® chamber slides in […] medium supplemented with 10% fetal calf serum (R-10) at 37° C. and 5% CO2. 4 micrograms of fluroscein-labeled 18-mer phosphorothioate oligonucleotide (F-ON) in 0.1 ml of HEPES-buffered saline (20 mM hydroxyethylpiperazine-ethane sulfonic acid (HEPES), 144 mM NaCl, pH 7.4) were mixed with Arg-PE formulated as described in Example 2, at the weight ratio of oligonucleotide to the lipid of 1:12. After 30 minutes of incubation, the mixture was made up to 2 mi with R-10 and added to the cells. After 24 hours incubation at 37° C., 5% CO2, the medium was aspirated, the cells washed 4 times with HEPES-buffered balanced salt solution, and immediately examined through a fluorescence microscope. […] Accumulation of the oligonucleotide in NCI-A549 cells, incubated with F-ON under the same conditions, but in the absence of Arg-PE, was undetectable.

For data set [2], the system named is NCI-H1048 cells. The data set is described as follows: Delivery of bacterial plasmid into human extrapulmonary small cell carcinoma NCI-H1048 cells, luciferase expression (Table 4). Type of data set: cell-based.
Protocol: (§1) These materials were used as supplied from the manufacturer. DOTAP-DOPE 1:1 was prepared from the mixture (1:1 by weight) of 1,2 dioleoyloxy-3-trimethylammoniopropane (DOTAP, Avanti PolarLipids, USA) and DOPE by dissolving in distilled water at the concentration 2 mg/ml. DDAB-DOPE 1:2.5 (also known as LipofectACE®, Gibco BRL, USA) was prepared from the mixture of dioctadecyl-dimethylammonium bromide (DDAB, Sigma, USA) and DOPE in the weight ratio 1:2.5 dissolved in distilled water at concentration of 3 mg/ml with brief sonication. All lipid solutions were sterilized by filtration though 0.2 micrometer cellulase acetate filter, unless supplied sterile by manufacturers.
The cells were plated into a 12-well cell culture plate at 1.5×10^5 cells/well in 1 ml of the growth medium. After a 24 hour acclimation period, 1 microgram of bacterial plasmid (pUC-CMVLUC) with luciferase reporter gene under control of the CMV promoter was added to the cell media, either alone, or in the complex with cationic lipids as indicated below, prepared at a variety of lipid-to-DNA ratios. The complexes were prepared by mixing the lipid, as supplied by the manufacturer, and 1 microgram of the plasmid in 40 microliters of HEPES-NS. […]
Data set [3] concerns KB31 cells. The data set is described as follows: Delivery of bacterial plasmid pUC-CMVLUC into KB31 cells, luciferase reporter expression (Table 1). Type of data set: cell-based, human. The note with it: KB cells, pUC-CMVLUC 1 microgram, 7 h; maximum over a range of plasmid/lipid ratios.
Protocol: as §1
Human epidermoid carcinoma (KB31) cells were grown at 37° C. and 5% CO2 in RPMI 1640 medium supplemented with 10% heat-inactivated fetal calf serum. The cells were plated into a 12-well cell culture plate at 1.5×10^5 cells/well in 1 ml of the growth medium. After a 24 hour acclimation period, 1 microgram of bacterial plasmid (pUC-CMVLUC) with luciferase reporter gene under control of the CMV promoter was added to the cell media, either alone, or in the complex with cationic lipids as indicated below, prepared at a variety of lipid-to-DNA ratios. The complexes were prepared by mixing the lipid, as supplied by the manufacturer, and 1 microgram of the plasmid in 40 microliters of HEPES-NS. […]
Another data set has as its system living cells. The experiment in a line: Delivery of functional plasmid DNA and phosphorothioate oligonucleotide into living cells (summary comparison). Type of data set: cell-based. The source says: We have tested Arg-PE for its ability to deliver functional plasmid DNA and phosphorothioate oligonucleotide (PS ON) into living cells. […] Helper lipids are required for the activity of previously known monocationic lipids.

For data set [4], the system named is NCI-H1048 cells. The experiment in a line: Uptake of fluorescein-labeled 24-mer phosphorothioate oligonucleotide, flow cytometry (Table 2). It is filed as cell-based, human. The note with it: for Total uptake: mean cell fluorescence / Uptake increase over oligo alone: oligonucleotide 0.5 micro-M. As to the method: Human small cell lung carcinoma cells (NCI-H1048) were grown in RPMI-1640 medium with 10% heat-inactivated fetal calf serum. The cells were exposed for 7 hours in a serum-free medium with a fluorescein-labeled 24-mer phosphorothioate oligonucleotide (0.5 micro-M final concentration), alone or in a complex with lipids obtained as described in Examples 2 and 3. Then the equal volume of serum-supplemented medium was added, and the cells were incubated for another 18 hours. After incubation, cellular accumulation of the oligonucleotide was assayed by flow cytometry using fluorescein label fluorescence.

[5] abbreviates: pUC-CMVLUC, maximum over a range of plasmid/lipid ratios.

Protocol for C26 cells: as §1
Mouse colon carcinoma cells (C26) were grown, incubated with plasmid pCMVLUC in the presence of Arg-PE or commercially available cationic lipids, and assayed for luciferase expression as described in Example 5 above.

On to `CCCCCCCC/C=C\CCCCCCCC(=O)OC[C@H](COP(=O)(O)OCCNC(=O)[C@@H](N)CCCNC(=N)N)OC(=O)CCCCCCC/C=C\CCCCCCCC` [Arg-PE, N-Arginyl-dioleoylphosphatidylethanolamine], for which, in the data set on C26 cells, the “Plasmid delivery compared with other cationic lipids” value was “more effective for the plasmid delivery into C26 cells than other monocationic lipids and as effective as the polycationic lipid Transfectam®”. The Maximum luciferase activity in the data set with C26 cells (setting [5]) was 9.02 × 10^7 RLU/mg protein. The “Toxicity compared with commercial lipids (MTT viability)” value in the data set on KB31 cells [1] (3.2-100 microgram lipid per ml, 24 hours exposure, lipid as such or DNA-lipid complexes) was “displayed the least toxicity”. Moreover, the “Toxicity in the studied range of concentrations efficient for gene delivery” value in the data set with KB31 cells [1] is listed as “no detectable toxicity”. Further, in the data set with NCI-A549 cells, the “Cells showing nuclear fluorescence and cytoplasmic deposits of fluorescent material” value was 100%; the “Microscopic appearance (intracellular distribution of F-ON)” value is “bright green nuclear fluorescence and substantial cytoplasmic deposits of granular fluorescent material”. The “Plasmid delivery compared with Transfectam” value in the data set on NCI-H1048 cells [2] is listed as “as effective for the plasmid delivery into NCI-H1048 cells as a polycationic Transfectam®”. In addition, the Maximum luciferase activity with NCI-H1048 cells [2] (setting [5]) is 3.21 × 10^5 RLU/mg protein. Moreover, the Maximum luciferase activity in the data set on KB31 cells [3] was 8.25 × 10^6 RLU/mg protein. For the same molecule, in the data set on living cells, the “Efficiency of DNA delivery compared with DOGS” value is “superior to that of a polycationic lipid, DOGS”; the “Efficiency of cellular delivery of DNA and PS ON versus commercial materials” value was “higher efficiency of the cellular delivery of DNA and PS ON”. The “DNA delivery activity without helper lipid” value in the data set with living cells (without the use of a "helper lipid") is listed as “highly active for the DNA delivery into the cells even without the use of a "helper lipid"”. In the data set with NCI-H1048 cells [4] (NCI-H1048 cells), the “Enhancement of oligonucleotide uptake compared with commercial cationic lipids” value is recorded as “enhanced the uptake of the oligonucleotide by the cells at least as effectively as the tested commercial cationic lipids”. In the data set on NCI-H1048 cells [4] (oligo/lipid ratio 1:3), the “Total uptake: mean cell fluorescence” value was found to be 2.97 relative units and the “Uptake increase over oligo alone” value came to 4.26 times. For the same molecule, in the data set on NCI-H1048 cells [4] (oligo/lipid ratio 1:6), the “Total uptake: mean cell fluorescence” value turned out to be 4.08 relative units and the “Uptake increase over oligo alone” value is given as 5.85 times.

As for `CCCCCCCCCCCCCCCCCCN(CCCCCCCCCCCCCCCCCC)C(=O)CNC(=O)C(CCCNCCCN)NCCCN` (stereo not drawn) [DOGS, reference compound], the “Toxicity in the studied range of concentrations efficient for gene delivery” value in the data set with KB31 cells [1] was “no detectable toxicity”.
